Columns and labels:
HDAC2 = target: T1, HDAC2 (Homo sapiens, UniProt Q92769); test: Inhibition of HDAC enzymes, 12-point concentration-response; format: biochemical
T1 construct: purchased BPS 50002
Procedure: (§1) Compounds were tested in a 12-point concentration-response format against 11 HDAC enzymes as outlined in Table 2A. Test compounds were diluted in 100% DMSO using 3-fold dilution steps. The final compound concentration in the assay ranged from 100 μM to 0.565 nM or as requested. Compounds were tested in a single well for each dilution, and the final concentration of DMSO in all assays was kept at 1%. Reference compounds were tested in an identical manner.

HDAC9 = target: T2, HDAC9 (Homo sapiens, UniProt Q9UKV0); test: as above; format: biochemical
T2 construct: purchased BPS 50009
T2 sequence (Q9UKV0 1-1066 isoform Q9UKV0-5): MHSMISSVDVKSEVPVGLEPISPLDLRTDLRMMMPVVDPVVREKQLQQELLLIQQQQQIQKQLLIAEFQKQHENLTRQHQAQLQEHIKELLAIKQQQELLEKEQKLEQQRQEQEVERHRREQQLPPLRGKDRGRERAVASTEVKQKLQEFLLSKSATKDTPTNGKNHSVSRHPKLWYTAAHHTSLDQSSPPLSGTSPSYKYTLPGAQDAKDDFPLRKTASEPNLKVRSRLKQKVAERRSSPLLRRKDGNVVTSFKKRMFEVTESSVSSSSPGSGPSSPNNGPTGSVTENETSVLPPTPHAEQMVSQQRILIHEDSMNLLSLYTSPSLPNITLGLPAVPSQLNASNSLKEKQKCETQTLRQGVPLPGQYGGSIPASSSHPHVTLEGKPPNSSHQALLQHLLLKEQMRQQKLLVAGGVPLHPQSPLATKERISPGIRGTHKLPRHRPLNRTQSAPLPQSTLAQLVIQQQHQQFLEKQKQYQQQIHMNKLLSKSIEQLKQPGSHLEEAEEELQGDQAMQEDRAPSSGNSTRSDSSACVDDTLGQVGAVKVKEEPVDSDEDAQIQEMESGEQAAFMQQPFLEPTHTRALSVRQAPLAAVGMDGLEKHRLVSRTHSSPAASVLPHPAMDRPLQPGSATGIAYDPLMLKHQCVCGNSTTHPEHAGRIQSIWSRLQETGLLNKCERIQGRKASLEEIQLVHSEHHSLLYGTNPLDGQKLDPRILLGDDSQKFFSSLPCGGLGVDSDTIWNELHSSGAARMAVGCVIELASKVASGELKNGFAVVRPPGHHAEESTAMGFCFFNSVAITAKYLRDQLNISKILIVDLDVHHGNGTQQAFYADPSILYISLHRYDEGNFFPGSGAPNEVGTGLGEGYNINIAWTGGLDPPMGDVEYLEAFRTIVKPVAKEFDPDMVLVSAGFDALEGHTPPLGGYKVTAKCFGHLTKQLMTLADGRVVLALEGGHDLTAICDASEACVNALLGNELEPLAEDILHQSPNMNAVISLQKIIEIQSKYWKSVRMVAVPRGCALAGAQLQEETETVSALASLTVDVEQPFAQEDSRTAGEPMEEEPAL
Procedure: as §1

[1] = Tumor uptake and retention (FIG. 2); format: in vivo
Description: Volume of distribution is one of the most important pharmacokinetic properties of a drug candidate and for an anticancer drug can result in increased drug distribution to the tumor.

T1 sequence (Q92769 whole entry): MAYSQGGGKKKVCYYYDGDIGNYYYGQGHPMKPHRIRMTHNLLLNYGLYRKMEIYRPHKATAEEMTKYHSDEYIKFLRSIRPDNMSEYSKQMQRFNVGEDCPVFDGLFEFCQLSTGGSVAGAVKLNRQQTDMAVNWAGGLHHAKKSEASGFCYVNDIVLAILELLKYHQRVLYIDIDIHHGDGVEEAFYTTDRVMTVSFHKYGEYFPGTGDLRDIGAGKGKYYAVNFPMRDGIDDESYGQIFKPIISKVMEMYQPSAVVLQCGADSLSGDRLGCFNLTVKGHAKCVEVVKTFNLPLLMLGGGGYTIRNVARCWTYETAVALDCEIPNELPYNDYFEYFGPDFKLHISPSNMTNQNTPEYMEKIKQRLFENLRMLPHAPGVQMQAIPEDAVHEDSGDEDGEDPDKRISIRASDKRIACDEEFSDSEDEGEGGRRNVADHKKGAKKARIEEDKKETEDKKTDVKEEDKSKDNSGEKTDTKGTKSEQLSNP

SMILES | IC50 (HDAC2; HDAC2) | IC50 (HDAC9; HDAC9) | Fold (1b/1a) (HDAC2; ratio of IC50, HDAC2) | Fold (1b/1a) (HDAC9; ratio of IC50, HDAC9) | tumor uptake and retention [1]
CC[C@@H](C(=O)Nc1ncc(C(=O)NO)s1)c1ccc(OC)cc1 [#1b, (R)—N-hydroxy-2-(2-(4-methoxyphenyl)butanamido)thiazole-5-carboxamide] | 36.5 nM | 210 nM | – | – | –
CC[C@H](C(=O)Nc1ncc(C(=O)NO)s1)c1ccc(OC)cc1 [#1a, (S)—N-hydroxy-2-(2-(4-methoxyphenyl)butanamido)thiazole-5-carboxamide] | – | – | 6.9 | 1.1 | preferential and significant tumor uptake and retention

Source: patent US11420947B2, “(S)-n-hydroxy-2-(2-(4-methoxyphenyl)butanamido)thiazole-5-carboxamide and pharmaceutically acceptable salts thereof” (TRANSLATIONAL DRUG DEVELOPMENT, LLC, priority 2018, dated 2022)
